A short description of assay [1]: Inhibition of arabidopsis recombinant allene oxide synthase. Particulars: read-out: I50.
Assay [2] can be described thus: Binding affinity at arabidopsis recombinant allene oxide synthase.
In the next assay the test system is Arabidopsis. Nature of the assay: Inhibition of arabidopsis recombinant allene oxide synthase at 1 uM.

As to `CCCCCCCOC(=O)CCCCCCCO[C@H](Cn1ccnc1)c1ccc(Cl)cc1Cl`, the IC50 in assay [1] is 0.95 µM. The Kd – broadly, the concentration at which binding is half-saturated – in assay [2] turned out to be 4.8 µM. For the same molecule, the inhibition – broadly, how much of the control response was suppressed – in the assay with Arabidopsis was determined as 50%.
As for `CCCCCCCOC(=O)CCCCCCCO[C@@H](Cn1ccnc1)c1ccc(Cl)cc1Cl`, in assay [1], the IC50 was determined as 0.005 µM. For the same molecule, the dissociation constant Kd in assay [2] was 1.4 µM. Further, in the assay on Arabidopsis, the inhibition stood at 93%.

These data come from ChEMBL document CHEMBL1142282, “Asymmetric synthesis and stereochemical structure-activity relationship of (R)- and (S)-8-[1-(2,4-dichlorophenyl)-2-imidazol-1-yl-ethoxy] octanoic acid heptyl ester, a potent inhibitor of allene oxide synthase” (Bioorg Med Chem, 2008).
